# “Also recorded” adds a separate entry of the source.
# What was measured:
# B16 mouse melanoma cells = test: MTT cell growth inhibition, B16 melanoma; type: cell-based
# Protocol: B16 mouse melanoma cells at exponential growth phase were digested by 0.25% trypsin, adjusted to the density of 3˜5×10^4/mL by adding the above working RPMI 1640 medium, sed into 96-well dishes at 150 μl per well, under normal culture conditions mentioned above. […] Equal volume of the working RPMI 1640 medium was added into the wells of the control group. Each group had four wells. After incubation, discarded the supernatant, added 150 μl D-Hanks per well, washed, discarded the supernatant. After adding 100 μl MTT (0.5 mg/mL), incubated for another 4 hrs. Discarded the supernatant, added 150 μl DMSO, kept at 37° C. for 10 mins. Absorbance was measured at wavelength of 570 nm.
# GSTP1 = test: Western blot to detect GSTP1 protein in LNCaP cells; type: cell-based, human; conditions: LNCaP cells exposed 24 hrs
# Protocol: Western blot to detect GSTP1 protein (FIG. 1): […] The cells were harvested, washed and total cellular proteins were extracted as described previously (Wang, […], et al. […] Cancer Res 61(20): 7544-51, 2001). Fifty μg cellular extracts were separated on a SDS-PAGE, electro-transferred to nitrocellulose filters, and immunoblotted initially with antibodies against GSTP1. The same membranes were stripped and re-probed with β-actin for loading control. The result was recorded by ECL films.
# Sp1 = target: T1, Sp1 (Homo sapiens, UniProt P08047); test: Mobility gel shift assay (EMSA) of Sp1-DNA binding; type: cell-based; conditions: AD cells exposed 24 hrs
# T1 construct: endogenous in cells; host or cells: LNCaP AD cells, nuclear extract
# Protocol: EMSA was performed according to modern technology. […] The extraction of nuclear proteins was performed as described previously (Wang, L. G., Liu, X. M., Kreis, W., and Budman, D. R. Down-regulation of prostate-specific antigen expression by finasteride through inhibition of complex formation between androgen receptor and steroid receptor-binding consensus in the promoter of the PSA gene in LNCaP cells. Cancer Res, 57: 714-719, 1997). Five μg of nuclear proteins was reacted for 30 minutes at room temperature with the [^32P]-labeled Sp1 oligonucleotide or their corresponding mutants oligonucleotide probe in binding buffer containing […] dIdC to increase the specificity of the reaction. The reaction mixtures were then subjected to electrophoresis in 8% native polyacrylamide gel(PAGE). The binding complexes were visualized by exposing the dried gel to X-ray film.
# androgen-induced BPH = test: Therapeutic effects on BPH: Test Two (castrated rats, testosterone propionate; weights and histopathology); type: in vivo, SD rats
# Protocol: Thirty-six male SD rats were randomly divided into 4 groups, nine each. Group 1 was served as blank control group (pseudo-surgery control group) in which animals were under the same surgical procedures except no testis was sectioned and fed normally. Groups from 2 to 4 were served as treatment groups in which all animals were anesthetized using ketamine and castrated by removing both testises under sterile conditions. After the surgery, the penicillin was injected to prevent the animals from infection. One week later, the testosterone propionate was injected subcutaneously at dose of 5 mg/kg, once a day for a month. […] Group 3 was served as positive control group in which animals were given Proscar by gavage at dose of 0.1 mg/rat/day for a month beginning on the same day that the testosterone propionate was injected.
# Twenty-four hrs after the last dose, the animals were euthanized and weighed. Volume and weight of prostate were measured. The averages of prostate volume/weight and organ coefficient (average weight of prostate/average of body weight) were calculated, and statistical analysis performed (t test).
# Prostate tissues of animals from different groups were embedded with paraffin. The tissue sections were stained with H&E for histpathological examination by an anatomical pathologist.
# [1] = tested on: human prostate cancer cell line LNCaP; test: MTT and SRB cell growth assay, LNCaP; type: cell-based
# Protocol: MTT and SRB method as described in the reference (Kreis, Budman et al. 1997). Briefly, human prostate cancer cells grown exponentially were aliquoted into 96-well plates at a density of 5000 cells/200 μl per well. Twenty-four hrs after the incubation, the cells were exposed for three or seven days to serial dilutions of indicated isothiocyanate. After the incubation, 100 μl of the medium was removed from each of the wells and 50 μl solution of 3-(4,5-dimethyl-thiazol-2-yl)-2,5-diphenyltetrazolium bromide (MTT) was added, the cells were incubated for an additional 4 hrs and then 200 μl of 0.04 N HCl-isopropanol was added to each well to dissolve the black formazan precipitates. The absorbance was measured at wavelength 540 nm. For SRB method, remove the medium after 72 hrs. The cells on 96-well dishes were fixed with 10% trichloride acetic acid for 1 hr, air-dried for 24 hrs. The cells were then stained with 50 μl of SRB (sulforhodamine B) for […]. After extensive washes with 1% acetic acid for 5 times, air-dried, the purple protein-SRB complex was dissolved in 200 μl 10 mM Tris-HCl buffer (pH 10.0), and the absorbance was measured at the wavelength of 540 and 630 nm. The percent of cell survival (T/C%) were calculated based on the results of test groups to that of the control group. The semi-exponential curves of the percent of cell survival (T/C%) to the drug concentrations (FIG. 8) and IC50 were obtained by using Sigma-plot program.
# T1 sequence (P08047 whole entry): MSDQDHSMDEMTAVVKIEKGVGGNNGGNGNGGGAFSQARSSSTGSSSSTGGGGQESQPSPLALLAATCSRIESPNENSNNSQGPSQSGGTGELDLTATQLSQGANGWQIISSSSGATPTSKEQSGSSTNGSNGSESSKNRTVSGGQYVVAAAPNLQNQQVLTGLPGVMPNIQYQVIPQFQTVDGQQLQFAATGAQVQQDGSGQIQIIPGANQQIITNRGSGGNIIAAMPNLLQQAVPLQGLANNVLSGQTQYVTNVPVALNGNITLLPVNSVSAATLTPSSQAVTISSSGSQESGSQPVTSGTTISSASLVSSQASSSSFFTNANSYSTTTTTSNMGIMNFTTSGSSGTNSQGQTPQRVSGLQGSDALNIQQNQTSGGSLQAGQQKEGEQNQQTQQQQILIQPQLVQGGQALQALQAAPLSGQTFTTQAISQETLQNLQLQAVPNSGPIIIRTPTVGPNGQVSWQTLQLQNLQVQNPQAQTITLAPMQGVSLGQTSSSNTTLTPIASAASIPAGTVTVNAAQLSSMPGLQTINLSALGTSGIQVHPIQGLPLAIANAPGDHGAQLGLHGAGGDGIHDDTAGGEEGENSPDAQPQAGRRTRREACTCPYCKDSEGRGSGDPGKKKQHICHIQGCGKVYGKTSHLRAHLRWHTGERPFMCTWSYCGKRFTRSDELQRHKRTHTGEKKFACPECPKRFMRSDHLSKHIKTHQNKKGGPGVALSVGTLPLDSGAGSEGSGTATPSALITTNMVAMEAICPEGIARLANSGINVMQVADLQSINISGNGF
smiles,measurement,setting,value
"S=C=NCCc1ccccc1 [PEITC, phenethyl isothiocyanate]",IC50,B16 mouse melanoma cells; B16 mouse melanoma cell line,10 to 20 µM
same,inhibition at 2.5 µM,"B16 mouse melanoma cells; Mus musculus, B16, 48 h, 2.5 μmol/L, 48 h, B16",14.5%
same,inhibition at 5 µM,"B16 mouse melanoma cells; Mus musculus, B16, 48 h, 5.0 μmol/L, 48 h, B16",27.9%
same,inhibition at 7.5 µM,"B16 mouse melanoma cells; Mus musculus, B16, 48 h, 7.5 μmol/L, 48 h, B16",36.7%
same,inhibition at 10 µM,"B16 mouse melanoma cells; Mus musculus, B16, 48 h, 10.0 μmol/L, 48 h, B16",49.2%
same,inhibition at 12.5 µM,"B16 mouse melanoma cells; Mus musculus, B16, 48 h, 12.5 μmol/L, 48 h, B16",58.4%
same,inhibition at 15 µM,"B16 mouse melanoma cells; Mus musculus, B16, 48 h, 15.0 μmol/L, 48 h, B16",63.7%
same,inhibition at 20 µM,"B16 mouse melanoma cells; Mus musculus, B16, 48 h, 20.0 μmol/L, 48 h, B16",77.3%
same,inhibition at 30 µM,"B16 mouse melanoma cells; Mus musculus, B16, 48 h, 30.0 μmol/L, 48 h, B16",89.6%
same,inhibition at 40 µM,"B16 mouse melanoma cells; Mus musculus, B16, 48 h, 40.0 μmol/L, 48 h, B16",> 96%
same,expression of GSTP1 (Western blot),GSTP1,significantly restored; also recorded: effectively induce
same,binding activity to Sp1 specific oligonucleotide of nuclear proteins (EMSA),Sp1,significantly reduced
same,Average Body Weight,"androgen-induced BPH; PEITC 2 mg/kg oral (Example 13-11), one month",337 ± 23.7 g
same,Average Volume of Prostate,"androgen-induced BPH; PEITC 2 mg/kg oral, one month",1.42 ± 0.16 cm^3
same,Average Weight of Prostate,"androgen-induced BPH; PEITC 2 mg/kg oral, one month",1.20 ± 0.16 g
same,Inhibition of Organ Coefficient,"androgen-induced BPH; PEITC 2 mg/kg oral, one month",16.28%
same,Organ Coefficient,"androgen-induced BPH; PEITC 2 mg/kg oral, one month",0.36 ± 0.06%
same,Acinar Density: no. of animals with score 0,"androgen-induced BPH; PEITC 2 mg/kg, 9 animals",7
same,Acinar Density: no. of animals with score +,"androgen-induced BPH; PEITC 2 mg/kg, 9 animals",2
same,Acinar Density: no. of animals with score ++,"androgen-induced BPH; PEITC 2 mg/kg, 9 animals",0
same,Acinar Density: no. of animals with score +++,"androgen-induced BPH; PEITC 2 mg/kg, 9 animals",0
same,"Connective tissue proliferation, or papillary hyperplasia: no. of animals with score 0","androgen-induced BPH; PEITC 2 mg/kg, 9 animals",8
same,"Connective tissue proliferation, or papillary hyperplasia: no. of animals with score +","androgen-induced BPH; PEITC 2 mg/kg, 9 animals",1
same,"Connective tissue proliferation, or papillary hyperplasia: no. of animals with score ++","androgen-induced BPH; PEITC 2 mg/kg, 9 animals",0
same,"Connective tissue proliferation, or papillary hyperplasia: no. of animals with score +++","androgen-induced BPH; PEITC 2 mg/kg, 9 animals",0
same,Enlargement of Lumen of Gland: no. of animals with score 0,"androgen-induced BPH; PEITC 2 mg/kg, 9 animals",3
same,Enlargement of Lumen of Gland: no. of animals with score +,"androgen-induced BPH; PEITC 2 mg/kg, 9 animals",6
same,Enlargement of Lumen of Gland: no. of animals with score ++,"androgen-induced BPH; PEITC 2 mg/kg, 9 animals",0
same,Enlargement of Lumen of Gland: no. of animals with score +++,"androgen-induced BPH; PEITC 2 mg/kg, 9 animals",0
same,"Histopathological score of BPH, Average X ± SD","androgen-induced BPH; PEITC 2 mg/kg, 9 animals",1.78 ± 1.09
same,Secretions of Gland: no. of animals with score 0,"androgen-induced BPH; PEITC 2 mg/kg, 9 animals",3
same,Secretions of Gland: no. of animals with score +,"androgen-induced BPH; PEITC 2 mg/kg, 9 animals",5
same,Secretions of Gland: no. of animals with score ++,"androgen-induced BPH; PEITC 2 mg/kg, 9 animals",1
same,Secretions of Gland: no. of animals with score +++,"androgen-induced BPH; PEITC 2 mg/kg, 9 animals",0
same,"lumen, secretary materials in the lumen and density of prostatic acinars, versus untreated BPH tissues (slide)","androgen-induced BPH; PEITC 2 mg/kg, FIG. 6.5",reduced
same,Percent of Cell Survival (T/C %),"[1]; 0.0390 μM, LNCaP",102.60%
same,Percent of Cell Survival (T/C %),"[1]; 0.0780 μM, LNCaP",102.10%
same,Percent of Cell Survival (T/C %),"[1]; 0.1562 μM, LNCaP",88.10%
same,Percent of Cell Survival (T/C %),"[1]; 0.3125 μM, LNCaP",82.25%
same,Percent of Cell Survival (T/C %),"[1]; 0.6250 μM, LNCaP",82.25%
same,Percent of Cell Survival (T/C %),"[1]; 1.2500 μM, LNCaP",78.12%
same,Percent of Cell Survival (T/C %),"[1]; 2.5000 μM, LNCaP",30.24%
same,Percent of Cell Survival (T/C %),"[1]; 5.0000 μM, LNCaP",10.06%
same,Percent of Cell Survival (T/C %),"[1]; 10.0000 μM, LNCaP",1.52%
same,Percent of Cell Survival (T/C %),"[1]; 20.0000 μM, LNCaP",0.56%
same,IC50,"[1]; Homo sapiens, LNCaP, MTT and SRB, read-out: IC50, growth inhibition",0.8 to 1.5 µM
same,inhibitory effect on growth of human prostate cancer cells stronger than B16 cells,[1]; LNCaP versus B16,8-10 times

# Reference: US8410170B2, “Use of isothiocyanates compounds in treating prostatic diseases and skin cancer” (Wuxi JC Pharmaceutical Technology Co., Ltd., priority 2005, dated 2013)
